Reference: patent publication EP2326328B1, “USE OF DIHYDRALAZINE FOR THE TREATMENT OF DISEASES RELATED TO ELEVATED SEMICARBAZIDE SENSITIVE AMINE-OXIDASE (SSAO) ACTIVITY” (Semmelweis Egyetem, priority 2008, dated 2010)

Key:
human serum SSAO = target: T1, human serum SSAO (Homo sapiens, UniProt Q16853); test: radiochemical determination of SSAO activity in human serum (14C-benzylamine substrate); assay type: biochemical; conditions: 20 min pre-incubation at room temperature, 37°C 40 min
T1 construct: from tissue; host or cells: human serum
T1 sequence (Q16853 29-763 limits assumed): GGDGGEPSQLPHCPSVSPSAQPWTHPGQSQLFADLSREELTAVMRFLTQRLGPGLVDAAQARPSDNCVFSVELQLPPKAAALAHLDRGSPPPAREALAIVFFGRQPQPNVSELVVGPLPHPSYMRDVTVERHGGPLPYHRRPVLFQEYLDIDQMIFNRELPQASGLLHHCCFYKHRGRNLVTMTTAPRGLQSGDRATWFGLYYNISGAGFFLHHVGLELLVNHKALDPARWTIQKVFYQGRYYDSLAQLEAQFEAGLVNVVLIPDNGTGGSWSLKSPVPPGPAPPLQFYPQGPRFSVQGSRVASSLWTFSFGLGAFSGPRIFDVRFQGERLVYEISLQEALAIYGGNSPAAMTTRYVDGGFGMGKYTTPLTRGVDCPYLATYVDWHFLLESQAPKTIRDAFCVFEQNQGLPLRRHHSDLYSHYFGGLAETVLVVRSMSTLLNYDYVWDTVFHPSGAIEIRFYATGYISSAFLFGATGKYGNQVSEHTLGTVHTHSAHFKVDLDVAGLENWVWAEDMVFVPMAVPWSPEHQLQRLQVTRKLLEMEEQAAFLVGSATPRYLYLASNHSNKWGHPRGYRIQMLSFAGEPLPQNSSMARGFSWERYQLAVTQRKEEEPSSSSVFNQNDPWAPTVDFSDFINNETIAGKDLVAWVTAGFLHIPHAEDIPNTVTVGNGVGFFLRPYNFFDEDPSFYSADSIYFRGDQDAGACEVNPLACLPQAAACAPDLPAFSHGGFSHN
Description: In the experiment human serum was used in the following way: blood samples were collected without anticoagulant, then stored at 4°C for 15 minutes and centrifuged (4°C, 2500 g/10 min). The supernatant was stored at -80°C until the measurement of the enzyme activity.
(§1) A radiochemical procedure (Yu P.H., Zuo D.M., Biochem. Pharmacol., 1992, 43, 307-312) was adapted for determining SSAO activities in the human serum. It is based on the determination of the quantity of ^14C-benzaldehyde formed by the enzyme reaction of ^14C-benzylamine.
The preparations containing the serum and the dihydralazine enzyme inhibitor were pre-incubated at room temperature for 20 min. The enzyme reaction was started with ^14C-benzylamine substrate (- 200000 dpm/tube). […] The enzyme activity was determined by liquid scintillation counting (600 µl supernatant + 5ml Aquasafe), using the formula below: ([dpm(sample)-dpm0ʹ] x 1.6 x 10 x 1.5)/(measured substrate activity dpm x mg protein) [formula] standing for: 1.6: extraction volume; 10: molar activity; 1.5: correction factor for the incubation time; dpm: disintegrations per minute (unit of radioactivity)
The inhibition was calculated in the % inhibition compared to the control ('control' sample not containing the inhibitor compound) after correction with the background ('blank' sample). […]

[1] = blood pressure of treated rats, determined in an invasive way; assay type: in vivo; conditions: sc 0.1 or 0.01 M solution (0.1 ml/100 g) once daily for 1-5 days, compared to the control group
Description: The blood pressure of the animals was determined in an invasive way. […]

SSAO = target: T2, SSAO (Homo sapiens, UniProt Q16853); test: serum SSAO activity of treated type 2 diabetic patients; assay type: in vivo; conditions: for SSAO activity (pmol/mg protein/hour): serum, oral 14.5 mg dihydralazine sulphate twice daily
T2 construct: from tissue; host or cells: human serum
T2 sequence (Q16853 29-763 limits assumed): T1 sequence (Q16853 29-763 limits assumed)
Description: as §1
The preparations containing the serum and the dihydralazine enzyme inhibitor were pre-incubated at room temperature for 20 min. The enzyme reaction was started with ^14C-benzylamine substrate (- 200000 dpm/tube). The samples obtained accordingly were incubated at 37°C for 40 min, then the reaction was stopped by adding 200 µl 2M citric acid solution. In case of the 'blank' sample, citric acid solution was added before adding the substrate, therefore, in this case no enzyme reaction took place. The samples were extracted with 1000 µl 1:1 toluene - ethyl acetate mixture, by vortex method, then centrifuged (2500 g / 5 min). The enzyme activity was determined by liquid scintillation counting (600 µl supernatant + 5ml Aquasafe), using the formula below: ([dpm(sample)-dpm0ʹ] x 1.6 x 10 x 1.5)/(measured substrate activity dpm x mg protein) [formula] standing for: 1.6: extraction volume; 10: molar activity; 1.5: correction factor for the incubation time; dpm: disintegrations per minute (unit of radioactivity)
After giving their informed consent, patients participating in the study were treated for 56 days taking ½ tablet twice daily of a pharmaceutical composition containing 28.9 mg dihydralazine sulphate (i.e. the ½ tablet contained 14.5 mg dihydralazine sulphate).
Serum SSAO activity was determined from blood samples collected before starting the treatment, and at the 14., 28. and 56. day of the treatment. The blood samples were centrifuged and the supernatant was stored at - 80°C until the measurement of the enzyme activity. SSAO activity was determined applying the method described in the example above.

NNc1nnc(NN)c2ccccc12 [dihydralazine]
IC20 (human serum SSAO): 500 nM | blood pressure of the animals [1]: did not cause lowering of the blood pressure | serum SSAO activity (SSAO; 2 treated type 2 diabetic patients, oral 14.5 mg dihydralazine sulphate twice daily for 56 days): parallel decrease of serum SSAO activity | SSAO activity (pmol/mg protein/hour) (SSAO; 1. patient, 14. day, before treatment 93.02): 62.42 pmol/mg protein/hour | SSAO activity (pmol/mg protein/hour) (SSAO; 1. patient, 28. day, before treatment 93.02): 85.73 pmol/mg protein/hour | SSAO activity (pmol/mg protein/hour) (SSAO; 1. patient, 56. day, before treatment 93.02): 82.41 pmol/mg protein/hour | SSAO activity (pmol/mg protein/hour) (SSAO; 2. patient, 14. day, before treatment 167.56): 127.96 pmol/mg protein/hour | SSAO activity (pmol/mg protein/hour) (SSAO; 2. patient, 28. day, before treatment 167.56): 186.36 pmol/mg protein/hour | SSAO activity (pmol/mg protein/hour) (SSAO; 2. patient, 56. day, before treatment 167.56): 105.1 pmol/mg protein/hour
